The values below come from ChEMBL document CHEMBL4837262, “Development and Profiling of Inverse Agonist Tools for the Neuroprotective Transcription Factor Nurr1” (J Med Chem, 2021).

Series [1] relates to HEK-293T. Description: Cytotoxicity against human HEK293T cells assessed as reduction in cell viability upto 100 uM after 24 hrs by WST-1 assay. In kind it is cell-based.
In series [2] the test system is T98G. Description: Cytotoxicity against human T98G cells assessed as reduction in cell viability upto 100 uM after 24 hrs by WST-1 assay. In kind it is cell-based.
The target of series [3] is T1, Nuclear receptor subfamily 4 group A member 2 (Homo sapiens, UniProt P43354). Description: Inverse agonist activity at Gal4-fused human Nurr1 LBD expressed in HEK293T cells co-expressing firefly luciferase assessed as luciferase activity by hybrid reporter gene assay. In kind it is cell-based. For orientation: Reporter assays use an easily measured gene product as a stand-in for the process of interest.

Series [4] concerns the target T1, Nuclear receptor subfamily 4 group A member 2. Nature of the series: Agonist activity at Gal4-fused human Nurr1 LBD expressed in HEK293T cells co-expressing firefly luciferase assessed as luciferase activity by hybrid reporter gene assay. In kind it is cell-based.
For series [5] the target is unchanged. Nature of the series: Agonist activity at Gal4-fused human Nurr1 LBD expressed in HEK293T cells co-expressing firefly luciferase assessed as fold increase in luciferase activity by hybrid reporter gene assay relative to control. In kind it is cell-based. The following applies: filed as agonist.
Series [6] has the same target. Description: Inverse agonist activity at human Nurr1 LBD assessed as inhibition of NCoA6-Nurr1 interaction after 2 hrs by HTRF assay. A general note: In TR-FRET formats the signal depends on donor and acceptor labels being close together.
Series [7] relates to T98G. Description: Cytotoxicity against human T98G cells assessed as reduction in cell viability at >30 uM after 24 hrs by WST-1 assay. In kind it is cell-based.
For series [8], the target named is T1, Nuclear receptor subfamily 4 group A member 2. Description: Inverse agonist activity at human Nurr1 LBD assessed as inhibition of heterodimerization of Nurr1 with RXRalpha after 2 hrs by HTRF assay.
The target is the same in series [9]. Nature of the series: Inverse agonist activity at human Nurr1 LBD assessed as inhibition of Nurr1 homodimerization after 2 hrs by HTRF assay. The following applies: filed as inverse agonist.
For series [10] the target is unchanged. Nature of the series: Inverse agonist activity at human Nurr1 LBD assessed as inhibition of CBP1-Nurr1 interaction after 2 hrs by HTRF assay.
The target is the same in series [11]. Nature of the series: Inverse agonist activity at Gal4-fused human Nurr1 monomer response element NBRE expressed in HEK293T cells co-expressing firefly luciferase assessed as luciferase activity by hybrid reporter gene assay. In kind it is cell-based.
Series [12] shares this target. Description: Inverse agonist activity at Gal4-fused human Nurr1 LBD expressed in HEK293T cells co-expressing firefly luciferase assessed as luciferase activity in presence of AQ by hybrid reporter gene assay. In kind it is cell-based.
For series [13] the target is unchanged. Description: Inverse agonist activity at human Nurr1 LBD assessed as displacement of NCoR2 from Nurr1 after 2 hrs by HTRF assay.
The test system of series [14] is HEK-293T. Description: Cytotoxicity against human HEK293T cells assessed as reduction in cell viability at >30 uM after 24 hrs by WST-1 assay. In kind it is cell-based. (In general: Tetrazolium assays rely on reduction of a dye to a coloured formazan, in cell work by metabolically active cells.)
The target of series [15] is T1, Nuclear receptor subfamily 4 group A member 2. Nature of the series: Inverse agonist activity at human Nurr1 LBD assessed as inhibition of SRC1-Nurr1 interaction after 2 hrs by HTRF assay.
The target is the same in series [16]. Nature of the series: Inverse agonist activity at human Nurr1 LBD assessed as displacement of NCoR1 from Nurr1 after 2 hrs by HTRF assay.
The target is the same in series [17]. Description: Agonist activity at Gal4-fused human Nurr1 LBD expressed in HEK293T cells co-expressing firefly luciferase assessed as luciferase activity in presence of 5-(Pyridin-3-yl)-1-methylindole-3-carboxylic Acid Methyl Ester by hybrid reporter gene assay. In kind it is cell-based.

Calls of active or inactive are those of the source. The rule behind the calls is not given here.

T1 sequence (P43354 whole entry, the tested form may be a part): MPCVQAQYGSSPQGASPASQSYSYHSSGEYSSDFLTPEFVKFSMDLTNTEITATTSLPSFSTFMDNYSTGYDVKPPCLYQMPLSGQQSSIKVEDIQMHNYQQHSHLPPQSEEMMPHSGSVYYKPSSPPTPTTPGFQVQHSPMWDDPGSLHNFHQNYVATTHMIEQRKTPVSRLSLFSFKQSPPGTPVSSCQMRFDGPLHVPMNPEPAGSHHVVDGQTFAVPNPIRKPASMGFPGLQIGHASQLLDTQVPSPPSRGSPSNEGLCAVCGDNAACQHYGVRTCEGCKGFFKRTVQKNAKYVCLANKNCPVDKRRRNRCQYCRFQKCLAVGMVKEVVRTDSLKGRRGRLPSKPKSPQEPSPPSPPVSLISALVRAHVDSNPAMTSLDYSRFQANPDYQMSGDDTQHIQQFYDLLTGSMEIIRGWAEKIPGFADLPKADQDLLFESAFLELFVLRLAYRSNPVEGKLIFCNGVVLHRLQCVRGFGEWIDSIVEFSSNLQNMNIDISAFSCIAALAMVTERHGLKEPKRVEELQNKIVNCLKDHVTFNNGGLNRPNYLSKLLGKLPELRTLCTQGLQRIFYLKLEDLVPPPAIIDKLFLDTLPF

As to `COC(=O)c1cn(C)c2ccc(-c3ccccc3)cc12`, the Activity result in the series with HEK-293T [1] and in the series with T98G [2] was “Non-Toxic” in each case.

With `COC(=O)c1cn(C)c2ccccc12`, in series [3] (read-out: IC50), the IC50 came out at 21 µM. In the case of `O=C(Oc1ccccc1)c1c[nH]c2ccccc12`, the EC50 in series [4] was found to be 11 µM. In [5], the fold change (FC) came out at 1.93.

As for `COC(=O)c1cn(C)c2c(Cl)cc(-c3cccnc3)cc12`, in series [3] (read-out: IC50), the half-inhibitory concentration (IC50) is 11 µM. On to `COC(=O)c1c[nH]c2ccc(Cl)cc12`, for which the IC50 in [3] (read-out: IC50) worked out at 24 µM. On to `CCNC(=O)c1cn(C)c2ccc(-c3ccccc3)cc12`, for which the IC50 entry in series [3] (hek293t) is on record as “Not Active”.

With `COC(=O)c1cn(Cc2ccccc2)c2ccccc12`, in series [3] (hek293t), the 50% inhibitory concentration (IC50) result was “Not Active”. Turning to `CC(C)(C)OC(=O)c1c[nH]c2ccccc12`, the concentration for half-maximal inhibition (IC50) entry in [3] (hek293t) was “Not Active”. With `COC(=O)c1c[nH]c2ccc(OC)cc12`, the half-maximal inhibitory concentration (IC50) in series [3] (read-out: IC50) came to 23 µM. As for `COC(=O)c1c[nH]c2c(C)cccc12`, in series [3] (read-out: IC50), the half-maximal inhibitory concentration (IC50) was found to be 35 µM. For `CCOC(=O)c1c[nH]c2ccccc12`, the IC50 result in series [3] (hek293t) is on record as “Not Active”. With `COC(=O)c1cn(C)c2ccc(-c3cccnc3)cc12`, the result in [6], in [8], in series [10] and in [15] was inactive. The Activity entry in the series on T98G [7] was “Toxic”; in [9], “Dose-Dependent Effect”; in the series with HEK-293T [14], “Toxic”. For the same molecule, the IC50 in [3] (read-out: IC50) worked out at 3.8 µM; in series [11], 10 µM; in [12] it was 3.7 µM; in series [13] it was 29 µM; in series [16], 57 µM. Consider `O=Cc1c[nH]c2ccccc12` [3-FORMYLINDOLE], for which the IC50 entry in [3] (hek293t) was “Not Active”. Turning to `COC(=O)c1c(C)[nH]c2ccccc12`, in series [3] (read-out: IC50), the IC50 amounted to 53 µM.

On to `COC(=O)c1c[nH]c2cccc(C)c12`, for which the IC50 result in [3] (hek293t) is recorded as “Not Active”.

On to `O=C(O)c1c[nH]c2ccccc12`, for which the concentration for half-maximal inhibition (IC50) result in series [3] (hek293t) is reported as “Not Active”. The same measure, in the same setting: to `CC(=O)c1c[nH]c2ccccc12` belongs “Not Active”. For `COC(=O)c1c[nH]c2cc(C)ccc12`, the IC50 in [3] (read-out: IC50) amounted to 57 µM. As to `COC(=O)c1cn(-c2ccccc2)c2ccccc12`, in series [4], the EC50 came out at 81 µM. In series [5], the fold change (FC) was 1.9. Consider `COC(=O)c1c[nH]c2ccccc12`, for which, in [3] (read-out: IC50), the IC50 is 48 µM. As for `COC(=O)c1c[nH]c2cccc(Cl)c12`, the IC50 in series [3] (read-out: IC50) was 55 µM.

With `COC(=O)c1c[nH]c2ccc(Cc3ccccc3)cc12`, in [3] (hek293t), the concentration for half-maximal inhibition (IC50) result was “Not Active”. Turning to `CCC(=O)c1c[nH]c2ccccc12`, the half-inhibitory concentration (IC50) entry in series [3] (hek293t) is recorded as “Not Active”.

As for `COC(=O)c1c[nH]c2c(Cl)cccc12`, the IC50 in series [3] (read-out: IC50) was determined as 19 µM. Still for that read-out and setting: to `CN(C)C(=O)c1cn(C)c2ccc(-c3ccccc3)cc12` belongs above 30 µM; to `COC(=O)c1c[nH]c2ccc(Br)cc12`, 15 µM. For `COC(=O)c1c[nH]c2c(OC)cccc12`, the concentration for half-maximal inhibition (IC50) entry in series [3] (hek293t) is on record as “Not Active”. In the case of `COC(=O)c1c(Cl)[nH]c2ccccc12`, the IC50 in series [3] (read-out: IC50) was 34 µM. On the same count and under the same terms, to `CNC(=O)c1cn(C)c2ccc(-c3ccccc3)cc12` belongs 14 µM. `CCN(CC)Cc1cc(Nc2ccnc3cc(Cl)ccc23)ccc1O` [AMODIAQUINE]: the EC50 in series [4] came out at 41 µM; in [17], 82 µM. With `COC(=O)c1c[nH]c2ccc(C)cc12`, in series [3] (read-out: IC50), the 50% inhibitory concentration (IC50) came out at 20 µM. The same measure, in the same setting: the figure for `CCn1cc(C(=O)OC)c2ccccc21` is 31 µM.

The term IC50 denotes the point on the concentration scale where inhibition reaches its midpoint. Usually EC50 stands for the concentration giving half of the maximal effect.
